The record followed here is patent US9439425B2, “Plant disease control composition and plant disease control method” (Sumitomo Chemical Company, Limited, priority 2012, dated 2016).

This test has as its system powdery mildew. Briefly: Test Example 1: foliar spray on potted wheat, powdery mildew inoculation, control value from onset area rate. To be noted: single agent, foliage spray on wheat, powdery mildew inoculated, 7 days at 21° C. It is filed as in vivo, Wheat (Shirogane). Here is the method:
A plastic pot was stuffed with a sand soil. Wheat (Shirogane) was sown thereon, allowed to grow in a greenhouse at 24° C. for 7 days, transferred to a greenhouse at 15° C., and then allowed to grow for 14 days. A water-diluted solution of the present compound (I) and a water-diluted solution of pyriofenone, metrafenone, cyflufenamid, quinoxyfen or proquinazid were mixed to prepare an agent solution containing prescribed amounts of the present compound (I) and, pyriofenone, metrafenone, cyflufenamid, quinoxyfen or proquinazid. The agent solution was sprayed to the foliage of the wheat, then the plant was air-dried, and then a powdery mildew was inoculated. After the inoculation, the plant was allowed to stand at 21° C. for 7 days and then an onset area rate was examined visually and a control value was calculated using the following formula. Moreover, the present compound (I), pyriofenone, metrafenone, cyflufenamid, quinoxyfen or proquinazid was diluted with water to prepare water-diluted solutions with a prescribed concentration, the same test was carried out for each of the solutions and control values were calculated. Control value (%)=100×(A−B)/A A: an onset area rate of the non-treated group B: an onset area rate of the treated group Results are shown in Table 1.

[1] abbreviates: treatment concentration 0.15 ppm.

On to `O=C(Cc1ccccc1)N/C(=N\OCC1CC1)c1c(C(F)(F)F)ccc(F)c1F` [Cyflufenamid], for which, under setting [1], the Control value worked out at 52%.

In turn, `COc1cc(C)c(C(=O)c2c(OC)ccc(Br)c2C)c(OC)c1OC` [Metrafenone] came in with a Control value under setting [1] of 71%.

The molecule `C=CCSC(=O)n1c(N)c(-c2ccccc2C)c(=O)n1C(C)C` [Present compound (I)] displayed a Control value (treatment concentration 0.1 ppm) of 3%.

Under setting [1], `CCCOc1nc2ccc(I)cc2c(=O)n1CCC` [Proquinazid] displayed a Control value of 74%.

The molecule `COc1cc(C)c(C(=O)c2c(OC)ncc(Cl)c2C)c(OC)c1OC` [Pyriofenone] yielded a Control value under setting [1] of 69%.

`Fc1ccc(Oc2ccnc3cc(Cl)cc(Cl)c23)cc1` [Quinoxyfen] displayed a Control value under setting [1] of 71%.
